Results on 2 compounds are retold here after patent US20250099475A1, “METHODS OF TREATING HYPERTENSION BY PERIODIC SUPPRESSION OF ALDOSTERONE SYNTHASE” (Mineralys Therapeutics, Inc., priority 2022, published 2025).

Bounds are passed on as bounds.

Holding throughout (assay type): in vivo, human
Data set [1] relates to plasma aldosterone (PAC). Description: Phase 1 part 1 single ascending dose: pharmacodynamics. The settings on record: for PAC reduction compared with placebo: 24 hours post-dose; for Aldosterone AUC0-24, mean (SD): Day 1; for return of baseline aldosterone levels by: single 100-mg doses; for effect on cortisol: single ascending doses. The protocol: In part 1, Compound A HBr or placebo was administered to 64 healthy Caucasian men aged 18 to 55 years (inclusive) in 8 cohorts of 8 participants each. In each cohort, 6 participants were randomized to receive a single dose of Compound A HBr and 2 participants were randomized to receive matching placebo. All cohorts included 2 sentinel participants of whom 1 received Compound A HBr and 1 received matching placebo. The remaining 6 participants, of whom 5 received Compound A HBr and 1 received placebo, were dosed ≥24 hours following the sentinel participants. The dosing cohorts were 5, 10, 20, 50, 100, 200, 400, and 800 mg. Doses were administered in an ascending order per cohort, with a minimum 10-day interval between consecutive dose levels. Participants received a single dose of Compound A HBr or placebo in the fasted state.
(§1) Plasma concentrations of aldosterone, 11-deoxycortisol, and ACTH; renin activity; renin concentration; and serum concentrations of cortisol and 11-DOC were measured in all parts of the study. The amount of aldosterone, cortisol, sodium, and potassium excreted and the urinary log10 (10×Na^+/K^+) ratio were listed per collection interval.
(§2) PD parameters were derived by non-compartmental analysis using WinNonlin® Professional (version 6.3). AUC0-24 was determined where possible for plasma aldosterone and serum cortisol.
(§3) Log-transformed change from baseline (Day 1, pre-dose) at 24 hours and log-transformed change from baseline at 22 hours on Day 1 (where baseline is Day −1, 22 hours) in plasma aldosterone and serum cortisol were analyzed using a linear model with dose group (each Compound A HBr dose and pooled placebo) as a fixed effect with the corresponding Day 1 pre-dose as a covariate. The LSM difference between each Compound A HBr dose compared with placebo was obtained from the model with the 90% CI and then back-transformed (exponentiated) to obtain estimates of the ratio of adjusted geometric means and 90% CI. Log-transformed change from baseline (time-matched) from 0 to 24 hours post-dose in plasma aldosterone and serum cortisol as repeated measures was analyzed using a linear mixed model with dose group (each active Compound A HBr dose and pooled placebo) as fixed effects, corresponding time-matched values on Day −1 as covariate, and unstructured covariance. The pre-dose time point on Day 1 was used as the 24-hour time point on Day −1. The LSM difference between each Compound A HBr dose compared with placebo was obtained from the model together with the 90% CI, and then back-transformed to obtain estimates of the ratio of adjusted geometric means and 90% CIs. The calculated AUC parameters were analyzed using a linear model. The log-transformed parameter of interest was the dependent variable with dose group (each Compound A HBr dose and pooled placebo) as the fixed effect and log-transformed AUC0-24 on Day −1 as the covariate. The LSM difference between each Compound A HBr dose compared with placebo and 90% CIs was calculated and then back-transformed to obtain estimates of the ratio of adjusted geometric means and 90% CIs.

Data set [2] relates to plasma aldosterone (PAC). Description: Phase 1 part 2 multiple ascending dose: pharmacodynamics, ACTH challenge. The conditions noted are these: for Aldosterone AUC0-24, mean (SD): Day 7; for return of baseline aldosterone levels by: multiple 120-mg doses. The protocol:
In part 2, Compound A HBr or placebo was administered to a total of 36 healthy Caucasian men aged 19 to 54 years (inclusive) in 3 cohorts of 12 participants each. In each cohort, 9 participants were randomized to receive multiple doses of Compound A HBr and 3 participants were randomized to receive matching placebo. The participants received daily doses in the fed state from Day 1 to Day 7. The doses were administered in an ascending order per cohort. Progression to the next dose level and dose selection were based on available data from part 1 and the preceding dose cohort in part 2 (safety, tolerability, and PD data [up to 48 hours post-final dose] and available PK data [up to 24 hours post-final dose] from a minimum of 10 participants [Compound A HBr n≥7] in the preceding dose cohort). The final dose levels of Compound A HBr for part 2 were 40, 120, and 360 mg. An ACTH challenge test was performed on Day −2 and on Day 6 to evaluate Compound A HBr selectivity for aldosterone synthesis. Plasma concentrations of aldosterone and 11-deoxycortisol and serum concentrations of cortisol and 11-DOC were measured pre-ACTH dose and 30 and 60 minutes post-ACTH dose on Day −2 and Day 6.
as §1, §2, §3

The nature of data set [3]: Phase 1 safety and tolerability. The protocol: A 4-part, Phase 1 randomized, double-blind, placebo-controlled, first-in-human study was performed to determine the safety, tolerability, PK, and PD of single ascending doses (SADs; part 1) and multiple ascending doses (MADs; part 2) of Compound A HBr in healthy participants. The study also assessed whether there were sex (part 3) and age-related (part 4) effects on the PK of a single dose of Compound A HBr. The study was approved by the local independent ethics committee; the BEBO foundation in Assen, Netherlands; and the Central Committee on Research Involving Human Subjects in The Hague, Netherlands; and conducted according to the provisions of the Declaration of Helsinki. Written informed consent was obtained from each study participant before conducting any protocol-related procedures.
Safety measurements (adverse events [AE], safety laboratory, vital signs and electrocardiograms, physical examinations) were summarized and/or listed.

Turning to `CC(=O)N[C@H]1CC[C@H](NC(=O)CN2CCN(c3nncc(-c4ccc(C)cc4)n3)CC2)CC1` [Compound A HBr], the “PAC reduction compared with placebo” value in the data set on plasma aldosterone (PAC) [1] (single doses of 100 and 200 mg) is given as “approximately −40%”; with plasma aldosterone (PAC) [1] (single doses of 400 and 800 mg) it was “approximately −70%”. The “Aldosterone AUC0-24, mean (SD)” value with plasma aldosterone (PAC) [1] (single 5 mg) is recorded as 1436 (531) ng × h/dL; in the data set with plasma aldosterone (PAC) [1] (single 10 mg), 1075 (418) ng × h/dL; in the data set with plasma aldosterone (PAC) [1] (single 20 mg) it was 911 (286) ng × h/dL; with plasma aldosterone (PAC) [1] (single 50 mg) it was 731 (247) ng × h/dL; in the data set with plasma aldosterone (PAC) [1] (single 100 mg), 562 (279) ng × h/dL; with plasma aldosterone (PAC) [1] (single 200 mg), 587 (115) ng × h/dL. The “Aldosterone AUC0-24, mean (SD)” value in the data set on plasma aldosterone (PAC) [1] (single 400 mg) was 403 (122) ng × h/dL; with plasma aldosterone (PAC) [1] (single 800 mg) it was 347 (108) ng × h/dL; with plasma aldosterone (PAC) [2] (40 mg once daily), 1343 (702) ng × h/dL; in the data set on plasma aldosterone (PAC) [2] (120 mg once daily), 1013 (312) ng × h/dL; in the data set on plasma aldosterone (PAC) [2] (360 mg once daily), 771 (440) ng × h/dL. In addition, in the data set on plasma aldosterone (PAC) [1] (single 5-50 mg), the “PAC returned to values near baseline within” value is reported as no more than 24 hours post-dose. Further, the “duration of PAC reduction” value in the data set on plasma aldosterone (PAC) [1] (single 100-800 mg) is “sustained until 24 hours post-dose”. Further, the “return of baseline aldosterone levels by” value in the data set with plasma aldosterone (PAC) [1] and in the data set on plasma aldosterone (PAC) [2] was no more than 16 h in each case. The effect on cortisol entry with plasma aldosterone (PAC) [1] is on record as “no dose-related effect on cortisol”. Besides, the “decrease of AUC0-24 for PAC vs placebo” value in the data set on plasma aldosterone (PAC) [1] (single doses ranging from 10 to 800 mg) is given as −36% to −77. Also, the “11-DOC and 11-deoxycortisol concentrations after ACTH stimulation” value in the data set on plasma aldosterone (PAC) [2] (360 mg, Day 6, compared to placebo) is given as “trend in increase”. In addition, the “reduction in AUC0-24 for PAC compared to placebo” value with plasma aldosterone (PAC) [2] (360 mg, after seven once-daily doses) is “approximately −50%”. In the data set on plasma aldosterone (PAC) [2] (Day 6, all multiple dose levels), the ACTH-stimulated cortisol response result was “no effect on the cortisol response”. Besides, the ACTH-stimulated aldosterone response entry in the data set on plasma aldosterone (PAC) [2] (Day 6, all multiple dose levels, compared to placebo) is given as “completely blunted”. Moreover, in the data set with plasma aldosterone (PAC) [2] (during multiple dosing), the “changes in serum cortisol and plasma 11-deoxycortisol concentrations” value is “No relevant changes from baseline”. The “dizziness (of mild intensity), participants” value in data set [3] (across all cohorts) is recorded as 9 (10.3%). In addition, the “serious AEs” value in data set [3] (healthy participants, all parts) is listed as “No serious AEs”.
Turning to `CC(=O)N[C@H]1CC[C@H](NC(=O)CN2CCN(c3nncc(-c4ccc(C)cc4)n3)CC2)CC1` [Compound A], the “urinary log10 (10×Na+/K+) ratio” value in the data set on plasma aldosterone (PAC) [1] (SAD, doses of ≥10 mg) is on record as “produced an increase”. The “PAC (AUC0-24) reduced by” value with plasma aldosterone (PAC) [1] (single 100- to 200-mg doses) was “up to 40%”; in the data set with plasma aldosterone (PAC) [1] (single 400- to 800-mg doses) it was “up to 70%”. Besides, the “return of baseline aldosterone levels by” value in the data set on plasma aldosterone (PAC) [1] and in the data set with plasma aldosterone (PAC) [2] was no more than 16 h throughout. Also, the effect on cortisol result in the data set with plasma aldosterone (PAC) [1] is “no meaningful effect on serum cortisol levels”. For the same compound, the “accumulation of serum 11-DOC” value in the data set with plasma aldosterone (PAC) [2] (40- and 120-mg daily cohorts) is “did not exceed the normal range”; in the data set with plasma aldosterone (PAC) [2] (360-mg daily dose cohort), “much more dramatic increase in 11-DOC”. The “maximum PAC suppression maintained for” value with plasma aldosterone (PAC) [2] (MAD, doses of 40, 120, and 360 mg) was “approximately 12 hours”. In addition, the “return of baseline aldosterone levels at” value with plasma aldosterone (PAC) [2] (daily dosing) is roughly 16 h. The “serum 11-DOC, plasma renin activity, and potassium concentrations” value with plasma aldosterone (PAC) [2] (once-daily administration, all dose levels compared to placebo) is reported as “appeared to increase”. For the same compound, the “rise in serum potassium” value in the data set on plasma aldosterone (PAC) [2] (within 2 days of initiation, all 3 dose cohorts (part 2)) is “approximately 0.5 mmol/L”. Moreover, the tolerability result in data set [3] (single doses up to 800 mg fasting, once-daily up to 360 mg fed, healthy men) is “well-tolerated”.
